The CheMixHub viscosity set

Test: xn = mol fraction of the nth substance listed

CCCN + CCC(C)O
303.15 K, 101 kPa
Details | viscosity [mPa·s]
x1 = 0.008438 | 2.439
x1 = 0.01874 | 2.408
x1 = 0.02903 | 2.377
x1 = 0.04186 | 2.343
x1 = 0.0458 | 2.329
x1 = 0.05767 | 2.3
x1 = 0.06786 | 2.277
x1 = 0.07593 | 2.253
x1 = 0.08515 | 2.224

Nc1ncnc2[nH]cnc12 + O
viscosity [mPa·s], 101.3 kPa
Details | 293.15 K | 298.15 K | 303.15 K | 308.15 K | 313.15 K | 318.15 K
x1 = 9.33e-05 | 1.006 | 0.895 | 0.803 | 0.738 | 0.623 | 0.595
x1 = 0.0001925 | 1.009 | 0.898 | 0.806 | 0.741 | 0.626 | 0.598
x1 = 0.0002792 | 1.011 | 0.9 | 0.808 | 0.743 | 0.628 | 0.6
x1 = 0.0003724 | 1.013 | 0.902 | 0.81 | 0.745 | 0.63 | 0.602
x1 = 0.0004489 | 1.015 | 0.904 | 0.812 | 0.747 | 0.632 | 0.604
x1 = 0.0005443 | 1.017 | 0.906 | 0.814 | 0.749 | 0.634 | 0.606

CCCCOC(C)=O + Cc1cccc(C)c1
viscosity [mPa·s], 101 kPa
Details | 298.15 K | 308.15 K
x1 = 0.0468 | 0.583 | 0.528
x1 = 0.1506 | 0.587 | 0.531
x1 = 0.2497 | 0.592 | 0.535
x1 = 0.3502 | 0.598 | 0.539
x1 = 0.4477 | 0.606 | 0.545
x1 = 0.4941 | 0.61 | 0.548
x1 = 0.549 | 0.615 | 0.551
x1 = 0.6505 | 0.625 | 0.559
x1 = 0.7501 | 0.637 | 0.568
x1 = 0.8511 | 0.651 | 0.577
x1 = 0.9409 | 0.664 | 0.587

CCCCOC(C)=O + CO
303.15 K, 101.33 kPa
Details | viscosity [mPa·s]
x1 = 0.0963 | 0.528
x1 = 0.1331 | 0.533
x1 = 0.1759 | 0.539
x1 = 0.2825 | 0.552
x1 = 0.3931 | 0.566
x1 = 0.4804 | 0.577
x1 = 0.5458 | 0.585
x1 = 0.6116 | 0.592
x1 = 0.6478 | 0.596
x1 = 0.7391 | 0.606
x1 = 0.8007 | 0.612
x1 = 0.8409 | 0.616
x1 = 0.8858 | 0.621
x1 = 0.924 | 0.624
